# Measured values taken from article PMC5556071, “ATR inhibition facilitates targeting of leukemia dependence on convergent nucleotide biosynthetic pathways” (Nature Communications, 2017).
# Several values for one entry are separate records, joined by “and”; a condition that tells them apart may be missing. Equal values may be shown once.
# System: CEM cells
# Assay: Non-targeted LC-MS metabolite profiling: percent [13C6]glucose labeling and relative metabolite levels
# Assay type: cell-based, human
# Conditions: CEM cells, 12 h following release from G1 arrest, replicates #1-#6
# Excerpt: To further investigate the functions of dCK and ATR at the G1/S transition in CEM cells, a non-targeted liquid chromatography mass spectrometry (LC-MS) assay was used to determine the utilization of labeled [^13C6]glucose and [^13C9,^15N3]deoxycytidine, the main substrates for de novo and salvage nucleotide biosynthesis, respectively. Of the 166 metabolites identified in CEM cells treated with VE-822 and/or dCKi, 105 metabolites found in all four treatment groups contained glucose-derived ^13C atoms. […] These metabolites included intermediates such as rUTP, rCTP and rCDP in the de novo dCTP biosynthesis (Fig. 1d). […] However, several deoxyribonucleotides, including dCTP, were below the limit of detection of the non-targeted LC-MS approach, raising the concern that the sensitivity of this assay is not sufficient to measure the contribution of the salvage pathway or the ratio of de novo and salvage biosynthesis to these pools. To address this problem, a newly developed targeted MS assay was developed (Fig. 1e and Supplementary Fig. 3). In this assay, samples containing either extracted dNTPs or hydrolyzed DNA from labeled cells are separated by LC for detection by a triple quadrupole mass spectrometer using multiple reaction monitoring (LC-MS/MS-MRM). The first (Q1) and third (Q3) quadrupoles function as mass filters, while the second (Q2) quadrupole serves as a collision chamber (Fig. 1e). For instance, to profile the biosynthetic composition of deoxycytidine (dC) derived from hydrolyzed DNA or dCTP, an intact, protonated dC ion is selected in Q1, followed by fragmentation of the glycosidic bond, which releases protonated cytosine in Q2, that is filtered in Q3 and detected to generate an ion chromatogram. The peak areas for the ion chromatograms of salvage [^13C9,^15N3]dC (red trace), de novo [^13C5]dC (black trace, from [^13C6]glucose) and unlabeled dC (gray trace) (Fig. 1e) are used to determine the relative contributions of the de novo and salvage routes both to dCTP pools and to DNA-incorporated dCTP.
# Cells were transferred into RPMI-1640 without glucose and supplemented with 10% dialyzed FBS (Gibco) containing the following labeled substrates: precursors for de novo [U-^13C6]glucose (Sigma-Aldrich, 389374) at 11 mM; precursors for purine salvage [U-^13C10,^15N5]dA (Cambridge Isotopes, CIL 3896), [^15N5]dA (Cambridge Isotopes, NLM-3895) and [^15N5]dG (Cambridge Isotopes, NLM-3899) at 5 µM or as indicated; and precursors for pyrimidine salvage: [U-^13C9,^15N3]dC (Silantes, 124603602) and [U-^13C10,^15N2]dT (Cambridge Isotopes, CNLM-3902) at 5 µM and [^15N2]orotate (Cambridge Isotopes, NLM-1048) at indicated concentrations. The cells were incubated for 12 h or as indicated before sample collection and processing. […]
# Non-targeted LC-MS metabolic assays. 1 x 10^6 cells were washed with ice-cold 150 mM ammonium acetate twice before adding 1 mL of ice-cold 80% methanol with 10 nM norvaline as an internal standard. After vigorous vortexing, samples were centrifuged at maximum speed, the aqueous layer was transferred to a glass vial and the metabolites were dried under vacuum. Metabolites were resuspended in 50 μL 70% acetonitrile (ACN) and 5 μL of this solution used for the mass spectrometer-based analysis. The analysis was performed on a Q Exactive (Thermo Scientific) in polarity-switching mode with positive voltage 4.0 kV and negative voltage 4.0 kV. The mass spectrometer was coupled to an UltiMate 3000RSLC (Thermo Scientific) UHPLC system. Mobile phase A was 5 mM ammonium acetate (NH4AcO), pH 9.9, B was acetonitrile and the separation achieved on a Luna […] NH2 100 A column (150 × 2.0 mm, Phenomenex). The flow was 200 μL/min, and the gradient ran from 15% A to 95% A in 18 min, followed by an isocratic step for 9 min and re-equilibration for 7 min. Metabolites were detected and quantified as area under the curve based on retention time and accurate mass (≤ 3 p.p.m.) using the TraceFinder 3.1 (Thermo Scientific). Relative amounts of […]
structure (smiles),measurement,setting,value
CNCc1ccc(-c2cc(-c3nc(-c4ccc(S(=O)(=O)C(C)C)cc4)cnc3N)on2)cc1 [VE-822],"Glucose labeling, Tyr (C00082)",,0.00%
same,"Glucose labeling, Uric Acid (C00366)",,0.00%
same,"Relative level, Orotate",,0.7
same,"Glucose labeling, Lac",listed as V,18.07% and 12.73% and 18.58% and 10.84% and 13.61% and 9.63%
same,"Glucose labeling, Lys",listed as V,0.00% (4×) and 1.11e-14% (2×)
same,"Glucose labeling, Mal",listed as V,21.43% and 21.55% and 21.63% and 20.66% and 20.63% and 19.36%
same,"Glucose labeling, Met",listed as V,0.00201% and 0.00233% and 0.002% and 0.0022% and 0.00164% and 0.00224%
same,"Glucose labeling, N-Carbamoyl-L-aspartate",listed as V,0.12% (3×) and 1.58% and 100.00% (2×)
same,"Glucose labeling, NADP+",listed as V,0.00% (5×) and 100.00%
same,"Glucose labeling, Nicotinamide",listed as V,0.00% (4×) and -2.22e-14% and 1.11e-14%
same,"Glucose labeling, Ornithine",listed as V,0.12% (3×) and 0.10% and 0.0528% and 0.00133%
same,"Glucose labeling, Orotate",listed as V,100.00% (5×) and 0.0318%
same,"Glucose labeling, Orotidine",listed as V,33.66% and 31.88% and 29.83% and 33.19% and 33.56% and 35.92%
same,"Glucose labeling, P-Choline",listed as V,0.00204% (2×) and 0.00195% and 0.0016% and 0.00194% and 0.00159%
same,"Glucose labeling, P-Ser",listed as V,17.40% and 18.30% and 18.56% and 14.37% and 10.74% and 15.47%
same,"Glucose labeling, Palmitate",listed as V,0.0183% and 0.0339% and 0.00791% and 0.04% and 0.0649% and 0.00591%
same,"Glucose labeling, Pantothenate",listed as V,0.00% (5×) and 1.11e-14%
same,"Glucose labeling, Pro",listed as V,9.73% and 9.96% and 9.64% and 8.05% and 8.31% and 8.35%
same,"Glucose labeling, Pro-OH",listed as V,0.00141% and 0.00104% and 0.000977% and 0.00201% and 0.00147% and 0.00157%
same,"Glucose labeling, R5P",listed as V,100.00% (5×) and 87.46%
same,"Glucose labeling, S7P",listed as V,82.53% and 82.63% and 83.80% and 82.99% and 87.27% and 79.29%
same,"Glucose labeling, SAM",listed as V,61.24% and 62.78% and 63.01% and 60.62% and 59.88% and 60.86%
same,"Glucose labeling, Ser (C00065)",listed as V,11.13% and 10.40% and 10.89% and 9.46% and 9.59% and 9.87%
same,"Glucose labeling, Shikimate (C00493)",listed as V,0.00% (5×) and 1.11e-14%
same,"Glucose labeling, Succ (C00042)",listed as V,0.93% and 0.0737% (3×) and 0.000466% and 0.000404%
same,"Glucose labeling, T (C00214)",listed as V,0.47% and 0.23% and 0.34% and 0.00858% and 0.08% (2×)
same,"Glucose labeling, Thymine (C00178)",listed as V,0.000884% and 0.000908% and 0.01% and 0.02% (2×) and 0.000701%
same,"Glucose labeling, Trp (C00078)",listed as V,0.00% (4×) and -2.22e-14% and 1.11e-14%
same,"Glucose labeling, Tyramine (C00483)",listed as V,0.00% (4×) and -2.22e-14% and 1.11e-14%
same,"Glucose labeling, UDP (C00015)",listed as V,69.98% and 62.30% and 68.54% and 67.03% and 57.99% and 53.20%
same,"Glucose labeling, UDP-Glc (C00029)",listed as V,98.27% and 97.52% and 97.62% and 96.48% and 95.86% and 94.41%
same,"Glucose labeling, UDP-GlcNAc (C00043)",listed as V,91.42% and 92.87% (2×) and 89.85% and 89.76% and 89.80%
same,"Glucose labeling, UMP (C00105)",listed as V,70.24% and 69.75% and 64.97% and 37.55% and 64.64% and 60.30%
same,"Glucose labeling, UTP (C00075)",listed as V,73.32% and 70.31% and 75.59% and 75.28% and 69.74% and 72.15%
same,"Glucose labeling, Uracil (C00106)",listed as V,0.06% and 0.05% and 0.00305% and 0.0378% and 0.0737% (2×)
same,"Glucose labeling, Urocanate (C00785)",listed as V,0.00% (5×) and -2.22e-14%
same,"Glucose labeling, Val (C00183)",listed as V,0.00% (5×) and -2.22e-14%
same,"Glucose labeling, Vit-C (C00072)",listed as V,0.00% (5×) and -2.22e-14%
same,"Glucose labeling, Xanthine (C00385)",listed as V,0.12% (2×) and 0.06% and 0.0856% and 0.09% (2×)
same,"Relative level, Lac",listed as V,1.3 (2×) and 1.2 and 0.857 and 0.476 and 0.85
same,"Relative level, Leu/Ile",listed as V,1.4 and 1.5 (2×) and 0.9 (2×) and 1.0
same,"Relative level, Lys",listed as V,1.7 and 1.9 and 1.8 and 0.9 and 1.0 and 1.2
same,"Relative level, Mal",listed as V,1.3 and 0.7 and 0.752 and 0.6 and 0.471 and 0.4
same,"Relative level, Met",listed as V,1.5 (3×) and 0.9 (2×) and 1.0
same,"Relative level, N-Carbamoyl-L-aspartate",listed as V,1.0 and 0.6 and 0.7 and 0.749
same,"Relative level, NAD+",listed as V,1.0 and 0.9 (2×) and 0.647 and 0.7 and 0.752
same,"Relative level, NADP+",listed as V,0.455 and 0.8 and 0.9 and 0.657 and 0.3
same,"Relative level, Nicotinamide",listed as V,1.2 (2×) and 1.1 and 1.0 and 0.9 and 0.854
same,"Relative level, Ornithine",listed as V,1.1 and 1.4 (2×) and 0.7 and 0.9 and 1.0
same,"Relative level, Orotidine",listed as V,1.0 (3×) and 0.6 (2×) and 0.567
same,"Relative level, P-Choline",listed as V,1.3 and 1.1 (2×) and 0.76 and 0.66 and 0.557
same,"Relative level, P-Creatine",listed as V,1.7 and 0.9 (2×) and 0.7 and 1.5 and 1.2
same,"Relative level, P-EtA",listed as V,1.1 and 0.7 and 0.6 and 1.7 and 0.744 and 0.5
same,"Relative level, P-Ser",listed as V,1.0 (2×) and 1.1 and 0.37 and 0.234 and 0.273
same,"Relative level, PEP",listed as V,0.435 and 0.082
same,"Relative level, Palmitate",listed as V,0.9 (3×) and 1.1 and 1.2 and 1.0
same,"Relative level, Pantothenate",listed as V,1.2 and 1.3 and 1.4 and 0.7 and 0.8 (2×)
same,"Relative level, Phe",listed as V,1.4 and 1.5 (2×) and 0.9 (2×) and 1.0
same,"Relative level, Pipecolate",listed as V,1.6 and 1.9 and 1.8 and 0.9 (2×) and 1.2
same,"Relative level, Pro",listed as V,1.3 (2×) and 1.4 and 0.851 and 0.9 (2×)
same,"Relative level, Pro-OH",listed as V,1.3 and 1.4 (2×) and 0.9 (3×)
same,"Relative level, Pyr",listed as V,2.1 and 3.2 and 1.3 and 0.7 and 1.1 and 6.3
same,"Relative level, R5P",listed as V,3.5 and 1.8 and 2.1 and 1.2 and 0.468 and 0.53
same,"Relative level, S7P",listed as V,3.0 and 1.6 and 2.7 and 1.2 and 0.9 and 0.6
same,"Relative level, SAM",listed as V,1.6 and 1.7 (2×) and 0.9 and 1.1 (2×)
